pKd, pKi: −log10 of the molar value. “And” between values parts separate entries of the source, which are not always exact repeats. Identical values can stand only once. “Also recorded” adds a separate entry of the source. Like-named read-outs stand apart in the source and are kept apart here.
Key:
D3R [1] = details: cited from earlier work
[2] = ref Mukherjee et al., 2000; cited from earlier work
[3] = molecular target: D2R high-affinity (D2Rhigh) sites; details: read-out: Kd for D2Rhigh, 1996, cited from earlier work
D3R [4] = details: human brain; ref Tziortzi et al., 2011; cited from earlier work
[5] = test system: dopamine D3R, D2Rhigh and D2Rlow receptors; assay: Approximate levels of 18F-fallypride bound to receptor subtypes; details: in vivo levels in striatum
D2RShort = details: read-out: D2RShort Ki; with 3H-spiperone; ref Stark et al., 2007; cited from earlier work
D2RLong = details: read-out: D2RLong Ki; with 3H-spiperone; ref Stark et al., 2007; cited from earlier work
D2R/D3R [6] = molecular target: D2R/D3R (Mus musculus, UniProt P30728); assay: PET/CT of 18F-fallypride in wild type and D2R knock-out mice; format: in vivo; details: D2R knock-out mice, PET
Sequence of D2R/D3R (Mus musculus, UniProt P30728) (P30728 whole entry): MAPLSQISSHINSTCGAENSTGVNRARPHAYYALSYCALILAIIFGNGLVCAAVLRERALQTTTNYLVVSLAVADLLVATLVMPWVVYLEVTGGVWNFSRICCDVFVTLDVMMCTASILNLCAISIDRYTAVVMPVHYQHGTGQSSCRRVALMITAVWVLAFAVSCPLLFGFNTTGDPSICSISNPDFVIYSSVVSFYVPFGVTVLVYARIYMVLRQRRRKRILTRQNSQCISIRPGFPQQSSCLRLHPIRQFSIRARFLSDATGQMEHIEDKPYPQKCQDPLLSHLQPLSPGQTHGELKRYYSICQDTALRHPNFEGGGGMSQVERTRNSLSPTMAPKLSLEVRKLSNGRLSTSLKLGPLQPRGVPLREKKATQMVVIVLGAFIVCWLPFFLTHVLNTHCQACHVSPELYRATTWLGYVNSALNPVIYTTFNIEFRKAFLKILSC

D2R/D3R [7] = assay: as above; format: in vivo
[8] = test system: dopamine D2 receptor (D2R)/D3R; assay: In vivo rat PET: drug-induced displacement of 18F-fallypride; details: for 18F-Fallypride displacement in vivo (change), Dorsal Striatum / 18F-Fallypride displacement in vivo (change), Ventral Striatum: 90 min post 18F-fallypride
[9] = Brain uptake / approximated brain concentration after intravenous injection; format: in vivo, rat; details: assuming uptake like 11C-5-OH-DPAT
[10] = test system: dopamine D2 receptor (D2R)/D3R; format: binding, rabbit
[11] = test system: dopamine D2 receptor (D2R)/D3R
[12] = reason for HPbCD vehicle; ref Xi et al., 2004; Gilbert et al. 2005; cited from earlier work
D2 Receptor = details: read-out: Binding Affinity D2 Receptor, cited from earlier work
D3 Receptor [13] = assay: Binding affinity of drugs at D3 receptor; details: for In Vitro D3 Selectivity: D2/D3 affinity ratio of the cited Table 1 values
D3 Receptor [14] = details: read-out: Binding Affinity D3 Receptor, cited from earlier work
[15] = In Vitro and In Vivo PET, ref Mukherjee et al., 2000, Shi et al., 2004
[16] = BPND KO/BPND WT, mice, listed as 18F-fallypride
[17] = wild-type mice, PET, cerebellum reference
[18] = intravenous dose of 0.015 mg/kg
[19] = rat sagittal slices, 10 µM drug, dorsal and ventral striata

Question: Which results are given for `CCCN([11CH2]CC)C1CCc2c(O)cccc2C1` (racemic) [11C-5-OH-DPAT, 11C-(R,S)-5-hydroxy-2-(di-n-propylamino)tetralin]?
Answer: Findings (receptor subtype binding) (D3R [1]; [15]): D2Rhigh and some D3R (yet to be confirmed); Uptake in the rat brain [2]: approximately 1 % of the injected dose

Question: With `CCCN(CCCCC[18F])C1CCc2c(O)cccc2C1` (racemic) [18F-5-OH-FPPAT, (R,S)-2-(N-propyl-N-(5-^18F-fluoropentyl)-5-hydroxyaminotetralin] as the compound, how does the “Findings (receptor subtype binding)” value (D3R [1]; [15]) read?
Answer: D2Rhigh and some D3R (yet to be confirmed)

Question: Which “Findings (receptor subtype binding)” value (D3R [1]; In Vitro, ref Gonzalez and Sibley, 1995) does the source give for `CCCN(CCC)C1CCc2ccc(O)cc2C1` (centres unmarked) [3H-7-OH-DPAT] here?
Answer: D3R binding at low concentrations and D2Rhigh at higher concentrations

Question: With `CCCN(CCC)C1CCc2ccc(O)cc2C1` (centres unmarked) [7-OH-DPAT] as the compound, how does the pKd ([3]; ref van Vliet et al.) read?
Answer: 7.25 and 7.05

Question: For `CC[11CH2]N1CCO[C@@H]2c3cc(O)ccc3CCC21` (some centres unmarked) [11C-PHNO], which “D3R binding fraction, substantia nigra and hypothalamus” value (D3R [4]) is on record?
Answer: 100%

Question: And the “D3R binding fraction, ventral striatum” value (D3R [4])?
Answer: 26%

Question: Which “Level of 18F-fallypride bound to D2Rhigh” value [5] does the source give for `C=CCN1CCC[C@H]1CNC(=O)c1cc(CCC[18F])cc(OC)c1OC` [18F-Fallypride, (S)-N-[(1-allyl-2-pyrrolidinyl)methyl]-5-(3-[18F]fluoropropyl)-2,3-dimethoxybenzamide] here?
Answer: ~60%

Question: What about the “Level of 18F-fallypride bound to D2Rlow” value [5] of the same compound?
Answer: ~20%

Question: What about the “Level of 18F-fallypride bound to D3R” value [5] of the same compound?
Answer: ~20%

Question: What about the pKi (D2RShort) of the same compound?
Answer: 8.68

Question: What about the pKi (D2RLong) of the same compound?
Answer: 8.66

Question: And the “BPND KO, Hypothalmus” value (D2R/D3R [6])?
Answer: 1.36

Question: And the “BPND KO, Substantia nigra/ Ventral tegmental area” value (D2R/D3R [6])?
Answer: 0.81

Question: And the “BPND KO, Ventral Striatum” value (D2R/D3R [6])?
Answer: 0.55

Question: And the “BPND KO, Dorsal Striatum” value (D2R/D3R [6]; small negative values listed as 0)?
Answer: 0

Question: What about the “fD3 (fraction of total binding to D3 receptors), Dorsal Striatum” value (D2R/D3R [7]; BPND KO/BPND WT, mice) of the same compound?
Answer: 0%

Question: And the “fD3 (fraction of total binding to D3 receptors), Hypothalmus” value (D2R/D3R [7]; BPND KO/BPND WT, mice)?
Answer: 98.5%

Question: What about the “fD3 (fraction of total binding to D3 receptors), Substantia nigra/ Ventral tegmental area” value (D2R/D3R [7]; BPND KO/BPND WT, mice) of the same compound?
Answer: 99.2%

Question: What about the “fD3 (fraction of total binding to D3 receptors), Ventral Striatum” value (D2R/D3R [7]; BPND KO/BPND WT, mice) of the same compound?
Answer: 15.6%

Question: And the “fD3 (fraction of total binding to D3 receptors), Hypothalmus” value (D2R/D3R [7]; [16])?
Answer: ~ 100%

Question: And the “fD3 (fraction of total binding to D3 receptors), Substantia nigra/ Ventral tegmental area” value (D2R/D3R [7]; [16])?
Answer: ~ 100%

Question: And the “fD3 (fraction of total binding to D3 receptors), Ventral Striatum” value (D2R/D3R [7]; [16])?
Answer: 15%

Question: What about the “BPND WT, Dorsal Striatum” value (D2R/D3R [7]; [17]) of the same compound?
Answer: 5.30

Question: And the “BPND WT, Hypothalmus” value (D2R/D3R [7]; [17])?
Answer: 1.38

Question: And the “BPND WT, Substantia nigra/ Ventral tegmental area” value (D2R/D3R [7]; [17])?
Answer: 0.81

Question: And the “BPND WT, Ventral Striatum” value (D2R/D3R [7]; [17])?
Answer: 3.51

Question: Which “Findings (receptor subtype binding)” value (D3R [1]; In Vitro, ref Mugnani et al., 2013, Gurevich and Joyce, 1999) does the source give for `CCCN(CC=C[125I])C1CCc2ccc(O)cc2C1` (centres unmarked) [125I-7-OH-PIPAT] here?
Answer: D3R binding; D2Rhigh binding not known

Question: With `CCCN(CCC)[C@@H]1CCc2ccc(O)cc2C1` [(R)-7-OH-DPAT] as the compound, how does the “18F-Fallypride displacement in vivo (change), Dorsal Striatum” value ([8]; 0.015 mg/kg iv, rat PET) read?
Answer: −22% and −21.5%

Question: What about the “18F-Fallypride displacement in vivo (change), Ventral Striatum” value ([8]; 0.015 mg/kg iv, rat PET) of the same compound?
Answer: −29% and −28.7%

Question: What about the “Nondisplaced 18F-Fallypride” value ([8]; 0.015 mg/kg iv, rat PET) of the same compound?
Answer: 71 to 78%

Question: And the “displacement of 18F-fallypride in the ventral striatum” value ([8]; 0.015 mg/kg iv, rat PET)?
Answer: 29%

Question: What about the “dorsal striatum 18F-fallypride binding reduced by” value ([8]; 0.015 mg/kg iv, rat PET) of the same compound?
Answer: 22%

Question: And the “18F-Fallypride displacement in vivo (change), Dorsal Striatum” value ([8]; 0.06 mg/kg iv, rat PET)?
Answer: −32.9%

Question: What about the “18F-Fallypride displacement in vivo (change), Ventral Striatum” value ([8]; 0.06 mg/kg iv, rat PET) of the same compound?
Answer: −43.4%

Question: And the “Nondisplaced 18F-Fallypride” value ([8]; 0.06 mg/kg iv, rat PET)?
Answer: 57 to 67%

Question: What about the “18F-Fallypride displacement in vivo (change), Dorsal Striatum” value ([8]; 0.38 mg/kg iv, rat PET) of the same compound?
Answer: −67.9%

Question: What about the “18F-Fallypride displacement in vivo (change), Ventral Striatum” value ([8]; 0.38 mg/kg iv, rat PET) of the same compound?
Answer: −75%

Question: What about the “Nondisplaced 18F-Fallypride” value ([8]; 0.38 mg/kg iv, rat PET) of the same compound?
Answer: 25 to 32%

Question: What about the “18F-Fallypride displacement in vivo (change), Dorsal Striatum” value ([8]; 1.88 mg/kg iv, rat PET) of the same compound?
Answer: −58% and −57.6%

Question: What about the “18F-Fallypride displacement in vivo (change), Ventral Striatum” value ([8]; 1.88 mg/kg iv, rat PET) of the same compound?
Answer: −77% and −76.7%

Question: What about the “Nondisplaced 18F-Fallypride” value ([8]; 1.88 mg/kg iv, rat PET) of the same compound?
Answer: 23 to 42%

Question: What about the “displacement of 18F-fallypride in the ventral striatum” value ([8]; 1.88 mg/kg iv, rat PET) of the same compound?
Answer: 77%

Question: What about the “dorsal striatum 18F-fallypride binding reduced by” value ([8]; 1.88 mg/kg iv, rat PET) of the same compound?
Answer: 58%

Question: And the “18F-fallypride displaced in vivo” value ([8]; dose of 1.88 mg/kg)?
Answer: greater than 50%

Question: What about the “18F-fallypride displaced in vivo” value [8, 18] of the same compound?
Answer: approximately 20%

Question: And the Approximated brain concentration ([9]; dose of 1.88 mg/kg)?
Answer: approximately 100 nM

Question: What about the Approximated brain concentration [9, 18] of the same compound?
Answer: 0.6 to 1 nM

Question: What about the “18F-fallypride binding reduced by” value ([10]; 10 nM drug, rabbit nucleus accumbens) of the same compound?
Answer: 10–15%

Question: What about the “18F-fallypride binding reduced by” value ([10]; 10 µM drug, all regions in rabbit) of the same compound?
Answer: ≥ 85%

Question: And the 18F-fallypride displaced ([10]; rabbit sagittal slices, lower doses, olfactory tubercle and nucleus accumbens)?
Answer: approx. 15%

Question: And the “18F-fallypride binding reduced by” value ([11]; 10 nM drug, rat ventral striatum (VST) and dorsal striatum (DST))?
Answer: 10–15%

Question: What about the “18F-fallypride binding reduced by” value ([11]; 10 µM drug, all regions in rat) of the same compound?
Answer: ≥ 85%

Question: And the 18F-fallypride displaced ([11]; rat horizontal slices, 100 nM drug)?
Answer: approx. 30%

Question: And the 18F-fallypride displaced ([11]; rat horizontal slices, 10 µM drug)?
Answer: exceeded 80%

Question: And the 18F-fallypride displaced ([11]; rat horizontal slices, micromolar concentration)?
Answer: about 60%

Question: What about the 18F-fallypride displaced ([11]; rat sagittal slices, 10 µM drug, dorsal striatum) of the same compound?
Answer: approx. 75%

Question: What about the pKd ([3]; ref Gonzalez and Sibley, 1995, van Vliet et al.) of the same compound?
Answer: 7.25 and 7.05

Question: For `COc1ccccc1N1CCN(CCCCNC(=O)c2ccc3ccccc3c2)CC1` [BP 897], which “18F-fallypride displaced, dorsal and ventral striatum” value ([8]; 3 mg/kg iv at 90 min post 18F-fallypride, rat PET) is on record?
Answer: 24–29%

Question: And the “Effect on 18F-fallypride binding in DSTR and VSTR” value ([8]; 3.2 mg/kg at 90 min, rat PET)?
Answer: visible reduction

Question: What about the “18F-Fallypride displacement in vivo (change), Dorsal Striatum” value ([8]; 3.2 mg/kg iv in HPbCD, rat PET) of the same compound?
Answer: −29.3%

Question: And the “18F-Fallypride displacement in vivo (change), Ventral Striatum” value ([8]; 3.2 mg/kg iv in HPbCD, rat PET)?
Answer: −24.0%

Question: And the “Nondisplaced 18F-Fallypride” value ([8]; 3.2 mg/kg iv, rat PET)?
Answer: 70 to 76%

Question: What about the “18F-fallypride displaced in vivo” value ([8]; rat PET, striatum, dose not given at place) of the same compound?
Answer: > 20%

Question: And the 18F-fallypride displaced [11, 19]?
Answer: more than 90%

Question: What about the Water solubility [12] of the same compound?
Answer: low water solubility

Question: With `C=CCN1CCC[C@H]1CNC(=O)c1cc(CCCF)cc(OC)c1OC` [Fallypride] as the compound, how does the pKi (D2 Receptor; ref Stark et al., 2007) read?
Answer: 8.68

Question: Which “Effect on 18F-fallypride binding in dorsal and ventral striatum” value ([8]; 4 mg/kg iv at 90 min, rat PET) does the source give for `O=C(NCCCCN1CCN(c2cccc(Cl)c2Cl)CC1)c1ccc2c(c1)Cc1ccccc1-2` [NGB 2904] here?
Answer: no measureable reduction; also recorded: not evident

Question: And the “18F-Fallypride displacement in vivo (change), Dorsal Striatum” value ([8]; 4.0 mg/kg iv in HPbCD, rat PET)?
Answer: Not significant

Question: And the “18F-Fallypride displacement in vivo (change), Ventral Striatum” value ([8]; 4.0 mg/kg iv in HPbCD, rat PET)?
Answer: Not significant

Question: What about the “Nondisplaced 18F-Fallypride” value ([8]; 4.0 mg/kg iv, rat PET) of the same compound?
Answer: 100%

Question: And the “D3R selectivity (over D2R)” value (D3 Receptor [13])?
Answer: > 50 fold

Question: And the “In Vitro D3 Selectivity” value (D3 Receptor [13])?
Answer: 56

Question: What about the pKi (D2 Receptor; ref Heiderbreder et al., 2010) of the same compound?
Answer: 6.95

Question: What about the 18F-fallypride displaced [11, 19] of the same compound?
Answer: 40 to 50%

Question: And the pKi (D3 Receptor [14]; ref Heiderbreder et al., 2010)?
Answer: 8.70

Question: What about the Water solubility [12] of the same compound?
Answer: low water solubility

Question: Which results are given for `CCCN1CCO[C@@H]2c3cc(O)ccc3CC[C@H]21` [PHNO]?
Answer: In Vitro D3 Selectivity (D3 Receptor [13]): 53; pKi (D2 Receptor; ref Willeit et al., 2006): 8.07; pKi (D3 Receptor [14]; ref Willeit et al., 2006): 9.80
